Measured values taken from patent US20170057955A1, “Pyridopyrimidinone Compounds for Modulating the Catalytic Activity of Histone Lysine Demethylases (KDMs)” (Dong-A Socio Holdings Co., Ltd., priority 2015, published 2017).

Target: T1, Recombinant human JARID1B/KDM5B (Homo sapiens, UniProt Q9UGL1)
T1 construct: purchased Active Motif 31432; host or cells: Sf9 insect cells
Assay: LANCE Ultra TR-FRET JARID1B (KDM5B) demethylase inhibition assay
Assay type: biochemical
Conditions: 0.1 uM of test-compounds, FLAG-JARID1B, 500 nM biotinylated H3K4me3 peptide substrate, 30 min at room temperature
Procedure, shortened: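 FLAG-tagged JARID1B from Sf9 cells, pre-incubated 5 min with 0.1 uM compound (1% DMSO), then 500 nM biotinylated H3K4me3 peptide, 500 uM 2-OG, 25 uM Fe(II), 2 mM ascorbate in pH 7.5 Hepes buffer. After 30 min at room temperature, H3K4me2/1 product detected by TR-FRET (665/590 nm ratio).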

T1 sequence (Q9UGL1 whole entry): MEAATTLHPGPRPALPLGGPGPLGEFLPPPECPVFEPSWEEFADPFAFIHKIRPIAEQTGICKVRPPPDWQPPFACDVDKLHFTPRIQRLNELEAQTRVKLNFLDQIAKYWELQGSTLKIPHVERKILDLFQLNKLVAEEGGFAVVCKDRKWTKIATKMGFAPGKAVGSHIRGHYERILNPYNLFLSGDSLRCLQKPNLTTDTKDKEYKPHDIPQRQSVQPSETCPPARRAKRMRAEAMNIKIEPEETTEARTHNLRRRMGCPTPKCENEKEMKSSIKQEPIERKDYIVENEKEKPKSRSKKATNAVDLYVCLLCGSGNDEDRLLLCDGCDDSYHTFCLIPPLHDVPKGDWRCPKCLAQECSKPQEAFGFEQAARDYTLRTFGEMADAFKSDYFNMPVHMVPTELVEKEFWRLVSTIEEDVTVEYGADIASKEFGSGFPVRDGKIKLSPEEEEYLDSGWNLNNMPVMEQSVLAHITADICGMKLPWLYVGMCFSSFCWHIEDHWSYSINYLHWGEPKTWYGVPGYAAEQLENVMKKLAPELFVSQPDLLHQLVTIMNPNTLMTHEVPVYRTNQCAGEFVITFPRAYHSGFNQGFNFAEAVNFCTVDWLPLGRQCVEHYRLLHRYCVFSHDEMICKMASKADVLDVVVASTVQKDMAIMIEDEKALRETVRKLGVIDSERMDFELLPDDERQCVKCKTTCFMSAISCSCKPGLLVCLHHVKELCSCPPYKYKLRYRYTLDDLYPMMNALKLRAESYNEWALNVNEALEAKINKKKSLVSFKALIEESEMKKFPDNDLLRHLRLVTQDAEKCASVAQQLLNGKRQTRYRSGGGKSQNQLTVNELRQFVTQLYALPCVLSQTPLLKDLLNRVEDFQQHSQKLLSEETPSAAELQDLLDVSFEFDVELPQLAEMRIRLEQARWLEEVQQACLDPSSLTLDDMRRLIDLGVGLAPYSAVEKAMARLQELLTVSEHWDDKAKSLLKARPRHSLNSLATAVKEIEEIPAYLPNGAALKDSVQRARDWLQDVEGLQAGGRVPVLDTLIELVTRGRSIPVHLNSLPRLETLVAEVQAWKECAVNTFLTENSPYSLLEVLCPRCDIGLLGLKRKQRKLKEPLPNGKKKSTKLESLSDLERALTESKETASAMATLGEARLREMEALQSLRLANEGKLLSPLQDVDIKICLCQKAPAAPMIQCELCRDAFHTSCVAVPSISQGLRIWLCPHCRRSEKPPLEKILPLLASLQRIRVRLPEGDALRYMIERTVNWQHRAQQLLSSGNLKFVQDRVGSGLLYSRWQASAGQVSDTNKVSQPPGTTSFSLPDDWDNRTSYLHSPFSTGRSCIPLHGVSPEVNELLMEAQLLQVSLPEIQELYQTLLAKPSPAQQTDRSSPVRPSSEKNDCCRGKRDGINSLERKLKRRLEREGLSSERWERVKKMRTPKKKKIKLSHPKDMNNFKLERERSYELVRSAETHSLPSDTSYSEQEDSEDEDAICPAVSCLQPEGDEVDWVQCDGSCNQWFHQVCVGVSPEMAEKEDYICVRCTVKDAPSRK

Row | SMILES | inhibition at 0.1 µM [%]
1 | O=c1[nH]c(CCc2ccccc2)nc2c(-c3csc(NC4CCN(Cc5ccccc5)CC4)n3)nccc12 [Compound 164, 8-(2-((1-benzylpiperidin-4-yl)amino)thiazol-4-yl)-2-phenethylpyrido[3,4-d]pyrimidin-4(3H)-one] | ≥ 50
2 | C[C@H](O)CNc1nc(-c2nccc3c(=O)[nH]c(COc4ccc(F)c(Cl)c4)nc23)cs1 [Compound 84, (S)-2-((3-chloro-4-fluorophenoxy)methyl)-8-(2-((2-hydroxypropyl)amino)thiazol-4-yl)pyrido[3,4-d]pyrimidin-4(3H)-one] | ≥ 50
3 | O=c1[nH]c(COc2ccc(F)c(Cl)c2)nc2c(-c3cnccn3)nccc12 [Compound 79, 2-((3-chloro-4-fluorophenoxy)methyl)-8-(pyrazin-2-yl)pyrido[3,4-d]pyrimidin-4(3H)-one] | 20 to 50
4 | O=c1[nH]c(COc2cccc(-c3ccccc3)c2)nc2c(-c3csc(NCCO)n3)nccc12 [Compound 156, 2-(([1,1′-biphenyl]-3-yloxy)methyl)-8-(2-((2-hydroxyethyl)amino)thiazol-4-yl)pyrido[3,4-d]pyrimidin-4(3H)-one] | 20 to 50
5 | O=c1[nH]c(COCc2ccccc2)nc2c(-c3csc(NC4CCN(Cc5ccccc5)CC4)n3)nccc12 [Compound 144, 2-((benzyloxy)methyl)-8-(2-((1-benzylpiperidin-4-yl)amino)thiazol-4-yl)pyrido[3,4-d]pyrimidin-4(3H)-one] | < 20
6 | O=c1[nH]c(COc2ccc(F)c(Cl)c2)nc2c(-c3csc(NCC4CCN(Cc5ccccc5)CC4)n3)nccc12 [Compound 96, 8-(2-(((1-benzylpiperidin-4-yl)methyl)amino)thiazol-4-yl)-2-((3-chloro-4-fluorophenoxy)methyl) pyrido[3,4-d]pyrimidin-4(3H)-one] | < 20
7 | Nc1nn(-c2nccc3c(=O)[nH]cnc23)cc1-c1ccc(N2CCNCC2)nc1 [Compound 14, 8-(3-amino-4-(6-(piperazin-1-yl)pyridin-3-yl)-1H-pyrazol-1-yl)pyrido[3,4-d]pyrimidin-4(3H)-one] | 20 to 50
8 | O=c1[nH]cnc2c(-n3cc(-c4cccc(CO)c4)cn3)nccc12 [Compound 3, 8-(4-(3-(hydroxymethyl)phenyl)-1H-pyrazol-1-yl)pyrido[3,4-d]pyrimidin-4(3H)-one] | < 20
9 | O=c1[nH]cnc2c(-c3cnn(CCO)c3)nccc12 [Compound 63, 8-(1-(2-hydroxyethyl)-1H-pyrazol-4-yl)pyrido[3,4-d]pyrimidin-4(3H)-one] | 20 to 50
10 | CN1CCOC(CNc2nc(-c3nccc4c(=O)[nH]cnc34)cs2)C1 (centres unmarked) [Compound 58, 8-(2-(((4-methylmorpholin-2-yl)methyl)amino)thiazol-4-yl)pyrido[3,4-d]pyrimidin-4(3H)-one] | 20 to 50
11 | Nc1nn(-c2nccc3c(=O)[nH]cnc23)cc1-c1ccc(O)cc1 [Compound 25, 8-(3-amino-4-(4-hydroxyphenyl)-1H-pyrazol-1-yl)pyrido[3,4-d]pyrimidin-4(3H)-one] | 20 to 50
12 | CCC(O)CNc1nc(-c2nccc3c(=O)[nH]cnc23)cs1 (centres unmarked) [Compound 60, 8-(2-((2-hydroxybutyl)amino)thiazol-4-yl)pyrido[3,4-d]pyrimidin-4(3H)-one] | 20 to 50
13 | O=c1[nH]c(COc2ccc(F)c(Cl)c2)nc2c(-c3csc(NC4CCN(Cc5ccccc5)CC4)n3)nccc12 [Compound 102, 8-(2-((1-benzylpiperidin-4-yl)amino)thiazol-4-yl)-2-((3-chloro-4-fluorophenoxy)methyl) pyrido[3,4-d]pyrimidin-4(3H)-one] | ≥ 50
14 | CCN(CC)CCCC(C)Nc1nc(-c2nccc3c(=O)[nH]c(COc4ccc(F)c(Cl)c4)nc23)cs1 (centres unmarked) [Compound 118, 2-((3-chloro-4-fluorophenoxy)methyl)-8-(2-((5-(diethylamino)pentan-2-yl)amino)thiazol-4-yl)pyrido[3,4-d]pyrimidin-4(3H)-one] | 20 to 50
15 | O=c1[nH]cnc2c(-c3cnn(Cc4ccccc4)c3)nccc12 [Compound 64, 8-(1-benzyl-1H-pyrazol-4-yl)pyrido[3,4-d]pyrimidin-4(3H)-one] | 20 to 50
16 | CN1CCC(Nc2nc(-c3nccc4c(=O)[nH]cnc34)cs2)CC1 [Compound 50, 8-(2-((1-methylpiperidin-4-yl)amino)thiazol-4-yl)pyrido[3,4-d]pyrimidin-4(3H)-one] | 20 to 50
17 | Nc1nn(-c2nccc3c(=O)[nH]cnc23)cc1-c1cnn(C2CCCC2)c1 [Compound 35, 8-(3-amino-1′-cyclopentyl-1H,1′H-[4,4′-bipyrazol]-1-yl)pyrido[3,4-d]pyrimidin-4(3H)-one] | 20 to 50
18 | CC(=O)c1ccc(-c2cn(-c3nccc4c(=O)[nH]cnc34)nc2N)cc1 [Compound 24, 8-(4-(4-acetylphenyl)-3-amino-1H-pyrazol-1-yl)pyrido[3,4-d]pyrimidin-4(3H)-one] | ≥ 50

Row | SMILES | inhibition at 0.1 µM [%]
19 | O=c1[nH]c(COc2ccc(Cc3ccccc3)cc2)nc2c(-c3csc(Nc4ccccc4)n3)nccc12 [Compound 73, 2-((4-benzylphenoxy)methyl)-8-(2-(phenylamino)thiazol-4-yl)pyrido[3,4-d]pyrimidin-4(3H)-one] | < 20
20 | CN1CCN(Cc2cccc(-c3cnn(-c4nccc5c(=O)[nH]cnc45)c3)c2)CC1 [Compound 6, 8-(4-(3-((4-methylpiperazin-1-yl)methyl)phenyl)-1H-pyrazol-1-yl)pyrido[3,4-d]pyrimidin-4(3H)-one] | < 20
21 | O=c1[nH]cnc2c(-c3csc(NC4CCN(Cc5ccccc5)CC4)n3)nccc12 [Compound 61, 8-(2-((1-benzylpiperidin-4-yl)amino)thiazol-4-yl)pyrido[3,4-d]pyrimidin-4(3H)-one] | 20 to 50
22 | O=c1[nH]c(Cc2ccccc2)nc2c(-c3csc(NCCO)n3)nccc12 [Compound 139, 2-benzyl-8-(2-((2-hydroxyethyl)amino)thiazol-4-yl)pyrido[3,4-d]pyrimidin-4(3H)-one] | < 20
23 | O=c1[nH]c(COc2ccc(F)c(Cl)c2)nc2c(-c3ccccn3)nccc12 [Compound 80, 2-((3-chloro-4-fluorophenoxy)methyl)-8-(pyridin-2-yl)pyrido[3,4-d]pyrimidin-4(3H)-one] | 20 to 50
24 | O=c1[nH]c(COc2ccc(F)c(Cl)c2)nc2c(-c3cccc(Cl)n3)nccc12 [Compound 114, 2-((3-chloro-4-fluorophenoxy)methyl)-8-(6-chloropyridin-2-yl)pyrido[3,4-d]pyrimidin-4(3H)-one] | < 20
25 | COCCNc1nc(-c2nccc3c(=O)[nH]c(COCc4ccccc4)nc23)cs1 [Compound 146, 2-((benzyloxy)methyl)-8-(2-((2-methoxyethyl)amino)thiazol-4-yl)pyrido[3,4-d]pyrimidin-4(3H)-one] | < 20
26 | O=c1[nH]c(COc2cc(F)cc(F)c2)nc2c(-c3csc(NCCO)n3)nccc12 [Compound 129, 2-((3,5-difluorophenoxy)methyl)-8-(2-((2-hydroxyethyl)amino)thiazol-4-yl)pyrido[3,4-d]pyrimidin-4(3H)-one] | < 20
27 | O=c1[nH]c(COc2ccc(F)c(Cl)c2)nc2c(-c3csc(NCCO)n3)nccc12 [Compound 81, 2-((3-chloro-4-fluorophenoxy)methyl)-8-(2-((2-hydroxyethyl)amino)thiazol-4-yl)pyrido[3,4-d]pyrimidin-4(3H)-one] | ≥ 50
28 | CN(C)CCNc1nc(-c2nccc3c(=O)[nH]c(COCc4ccccc4)nc23)cs1 [Compound 148, 2-((benzyloxy)methyl)-8-(2-((2-(dimethylamino)ethyl)amino)thiazol-4-yl)pyrido[3,4-d]pyrimidin-4(3H)-one] | < 20
29 | CC(C)N1CCC(CNc2nc(-c3nccc4c(=O)[nH]cnc34)cs2)CC1 [Compound 55, 8-(2-(((1-isopropylpiperidin-4-yl)methyl)amino)thiazol-4-yl)pyrido[3,4-d]pyrimidin-4(3H)-one] | ≥ 50
30 | O=c1[nH]c(COc2ccc(F)c(Cl)c2)nc2c(-c3cccc(N4CCOCC4)n3)nccc12 [Compound 116, 2-((3-chloro-4-fluorophenoxy)methyl)-8-(6-morpholinopyridin-2-yl)pyrido[3,4-d]pyrimidin-4(3H)-one] | < 20
31 | CC(C)c1nc2c(-c3csc(NCCO)n3)nccc2c(=O)[nH]1 [Compound 138, 8-(2-((2-hydroxyethyl)amino)thiazol-4-yl)-2-isopropylpyrido[3,4-d]pyrimidin-4(3H)-one] | < 20
32 | CN1CCC(Nc2nc(-c3nccc4c(=O)[nH]c(CCc5ccccc5)nc34)cs2)CC1 [Compound 163, 8-(2-((1-methylpiperidin-4-yl)amino)thiazol-4-yl)-2-phenethylpyrido[3,4-d]pyrimidin-4(3H)-one] | 20 to 50
33 | O=c1[nH]cnc2c(-c3csc(NCC4CCN(C5CCCC5)CC4)n3)nccc12 [Compound 54, 8-(2-(((1-cyclopentylpiperidin-4-yl)methyl)amino)thiazol-4-yl)pyrido[3,4-d]pyrimidin-4(3H)-one] | ≥ 50
34 | O=c1[nH]c(COc2ccc(F)c(Cl)c2)nc2c(-c3csc(NCC4CCCO4)n3)nccc12 (centres unmarked) [Compound 85, 2-((3-chloro-4-fluorophenoxy)methyl)-8-(2-(((tetrahydrofuran-2-yl)methyl)amino)thiazol-4-yl)pyrido[3,4-d]pyrimidin-4(3H)-one] | ≥ 50
35 | O=c1[nH]c(COc2ccc(F)c(Cl)c2)nc2c(-c3csc(NCC(O)c4ccncc4)n3)nccc12 (centres unmarked) [Compound 111, 2-((3-chloro-4-fluorophenoxy)methyl)-8-(2-((2-hydroxy-2-(pyridin-4-yl)ethyl)amino)thiazol-4-yl)pyrido[3,4-d]pyrimidin-4(3H)-one] | 20 to 50
